Patent US20190101539A1, “METABOLOMIC BASED BIOMARKERS FOR COLON CANCER DETECTION” (UNIVERSITY OF SOUTHERN CALIFORNIA, priority 2015, published 2019)
Values belong to the compound of their own block, whether it stands above or below them.

Experiments:
[1] = Degradation kinetics of FOCM metabolites at storage temperatures, Arrhenius model; assay type: physicochemical; parameters: Ln (K) / Calculated Ln (K) / Calculated K: unit not given here; details: for Degradation constant, K: first order, days 0-42
Description: This will further enhance the clinical prediction ability. The stability of these plasma vitamin B and folate metabolites were studied to validate the reliability of the assay and the time-dependent effect on the concentration of the analytes in patient samples. Using freshly made samples and assessing their degradation over time, we have established an Arrhenius models that will allow the team to extrapolate the metabolite level over time.
The stability of these metabolites were assessed using accelerated stress conditions which involves determining degradation rates of analytes through monitoring changes in time of their concentration in solution at several predetermined storage temperatures and then analyzing the results in terms of the Arrhenius equation: […]
For a valid Arrhenius model to be developed, a linear plot determining the degradation rate of analyte at given storage temperatures against reciprocals of these temperatures is needed. The pre-exponential factor A, which may be obtained by extrapolating the straight line to zero value of the temperature reciprocal, appears to be affected by factors such as exposure to pollution^7 and light^8, relative humidity during the ageing, and the analytes. The activation energy, directly proportional to the slope of the straight line, represents a measure of sensitivity of the degradation rate of the studied property to temperature changes. The degradation rate of the analytes at ambient conditions can be estimated by extrapolating the Arrhenius plot for the analyte concentration to storage temperature. Combined with a kinetic equation describing changes of the concentration with time, this rate may then be used to estimate the life-expectancy of the analytes.
In order to estimate the degradation rate constant, k, at the storage temperature of the plasma samples (which is usually −80° C.), a degradation experiment was conducted for FOCM metabolites at ambient temperatures of 37° C., 25° C., 4° C. and −20° C. […] All degradation curves were assumed to be first order. All experimental samples were stored and quantified at days 0, 3, 7, 14, 21, 28 and 42 using the developed LCMS assay. The results below (for 4-pyridoxic acid) are an example of the data obtained for each of the FOCM metabolites.

[2] = Evaluation of stabilizing agents for FOCM metabolites; assay type: physicochemical; details: 0.5% ascorbic acid, compared with other stabilizing agents
Source text: A major challenge with the FOCM intermediates during storage and analysis is their poor stability. The metabolites may be unstable through environment exposures such as heat, light and/or oxygen, thereby posing great challenge to determine the actual concentration of these metabolites at the time of collection. These FOCM intermediates make the metabolomics-based assay a very powerful tool to a more accurate quantification. The instability of these vitamins pose a great challenge due to their poor stability in the presence of metallic ions, oxidative species and light which catalyze most of the degradation reactions. Most of the vitamin B and folate metabolites degrade due as a consequence of photooxidation reactions which becomes a challenge for assay development necessitating the provision of the most suitable conditions for storage and processing of the plasma samples in order to produce a highly sensitive and reliable assay method. In order to address the instability issues during sample processing, the analysis will be conducted on at 4° C. using black eppendorf tubes. […] Consistent metabolites extraction is achieved using protein precipitation approach followed by the supernatant evaporated to dryness under nitrogen. […]

[3] = −80 °C, extrapolated from Arrhenius model

Ln (K) ([1]; 4 °C): −4.164
Calculated K ([1]; 4 °C, Arrhenius model): 0.014
Calculated Ln (K) ([1]; 4 °C, Arrhenius model): −4.302
Degradation constant, K ([1]; 4 °C): 0.016
Ln (K) ([1]; 25 °C): −4.019
Calculated K ([1]; 25 °C, Arrhenius model): 0.019
Calculated Ln (K) ([1]; 25 °C, Arrhenius model): −3.977
Degradation constant, K ([1]; 25 °C): 0.018
Ln (K) ([1]; 37 °C): −3.841
Calculated K ([1]; 37 °C, Arrhenius model): 0.022
Calculated Ln (K) ([1]; 37 °C, Arrhenius model): −3.810
Degradation constant, K ([1]; 37 °C): 0.021
A, Arrhenius pre-exponential factor ([1]; Arrhenius plot): 1.37
Ln(A) ([1]; Arrhenius plot intercept): 0.3183
Ln (K) ([1]; −20 °C): −4.806
Calculated K ([1]; −20 °C, Arrhenius model): 0.009
Calculated Ln (K) ([1]; −20 °C, Arrhenius model): −4.741
Degradation constant, K ([1]; −20 °C): 0.008
Calculated K [1, 3]: 0.002
Calculated Ln (K) [1, 3]: −6.313
E, activation energy ([1]; −slope*R of Arrhenius plot): 10.6 KJmol^−1
SMILES: Cc1ncc(CO)c(C(=O)O)c1O [4-Pyridoxic acid]

SMILES: O=C1O[C@H]([C@@H](O)CO)C(O)=C1O [ascorbic acid]
Stabilization of FOCM metabolites from oxidation [2]: more effective in stabilizing the FOCM metabolites from oxidation
